Consider ten molecules from ChEMBL document CHEMBL1201862, “PubChem BioAssay data set” (2004).

The target of one assay is NS3 (Hepatitis C virus, UniProt A3EZJ3). The experiment in a line: HCV NS3 helicase inhibitor potency, dose response, biochemical, fluorescence polarization, ChemBridge library (AID 743264). For orientation: In fluorescence polarisation assays a small probe gives low polarisation when free and higher when bound to something large.
For a further assay, the system named is A549. Kind of assay: A549 cell toxicity, dose response, cytotoxicity control, plate reader, cherry-pick samples (AID 687028). The following applies: Homo sapiens. Type of assay: functional, cell-based.
Assay [1] has as its target ADP-ribosylation factor GTPase-activating protein 1 (Rattus norvegicus, UniProt Q62848). The experiment in a line: Fluorescence polarization-based biochemical high throughput dose response screening assay to identify inhibitors of ADP-ribosylation factor GTPase activating protein 1 (ARFGAP1). Type of assay: functional.
Assay [2] is described as follows: Late stage assay provider results from the probe development effort to identify inhibitors of the Plasmodium falciparum M18 Aspartyl Aminopeptidase (M18AAP): radiolabel-based cell-based dose response assay to identify compounds that inhibit P. falciparum growth in RBCs, Set 2.. The assay is classed as functional.
For assay [3], the target named is T1, ATP-dependent translocase ABCB1 (Homo sapiens, UniProt P08183). Kind of assay: ABCG2 efflux pump inhibitor potency, dose response, Ig-MXP3 cells, JC-1, flow cytometry, set 2 (AID 504566).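 Note: flow cytometry median green fluorescence of retained JC-1 dye; potency of efflux pump inhibition measured as rising substrate retention.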 The following applies: read-out: EC50_MICROM_. Type of assay: functional.
The nature of assay [4]: HEp-2 cell cytotoxicity, dose response, cytotoxicity control for RSV inhibitor project, HTS (AID 2410). The assay is classed as functional. The following applies: human respiratory syncytial virus.
Assay [5] addresses T1, ATP-dependent translocase ABCB1. The experiment in a line: ABCB1 efflux inhibitor potency, dose response, Jurkat-DNR cells, JC-1, flow cytometry, set 2 (AID 504569).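 Note: potency of pump inhibitors that raise cellular JC-1 green fluorescence up to the nicardipine level.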 The assay is classed as functional. The following applies: read-out: EC50_MICROM_.
For the next assay, the target named is Melanocortin receptor 4 (Homo sapiens, UniProt P32245). The assay is classed as functional, cell-based.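 Note: Cell-based assay with luminescence read-out, confirmatory dose-response testing for agonist activity of biased ligands at MC4R; human U2OS cells with tagged receptor and beta-arrestin; potency of agonists that increase receptor coupling to beta-arrestin.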
Another assay has as its system HeLa. Kind of assay: HeLa cell cytotoxicity, dose response, cytotoxicity control, ATP luminescence, cherry-pick samples (AID 687004). The assay is classed as functional, cell-based. As to conditions: Homo sapiens.
In assay [6] the target is T2, Adenosylmethionine-8-amino-7-oxononanoate aminotransferase (Mycobacterium tuberculosis, UniProt P9WQ81).
T2 sequence (P9WQ81 whole entry): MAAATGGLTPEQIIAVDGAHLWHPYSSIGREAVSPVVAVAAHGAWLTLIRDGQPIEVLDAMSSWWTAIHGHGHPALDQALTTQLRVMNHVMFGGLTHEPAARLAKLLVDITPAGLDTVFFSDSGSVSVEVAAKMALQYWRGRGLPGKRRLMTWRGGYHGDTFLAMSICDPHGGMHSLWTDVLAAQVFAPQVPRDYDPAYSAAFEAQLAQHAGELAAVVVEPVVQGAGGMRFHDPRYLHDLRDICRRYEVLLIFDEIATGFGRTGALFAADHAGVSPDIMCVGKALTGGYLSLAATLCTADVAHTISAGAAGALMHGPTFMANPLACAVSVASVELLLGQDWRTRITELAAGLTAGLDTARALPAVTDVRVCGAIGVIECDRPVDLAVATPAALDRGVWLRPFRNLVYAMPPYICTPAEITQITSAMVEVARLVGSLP
The experiment in a line: Mycobacterium tuberculosis BioA enzyme inhibitor Measured in Biochemical System Using Plate Reader - 2163-02_Inhibitor_Dose_CherryPick_Activity. Type of assay: functional, Mycobacterium tuberculosis UT205.

In assay [7] the target is Oxysterols receptor LXR-beta (Homo sapiens, UniProt P55055). Type of assay: functional, cell-based.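 Note: agonist activity at LXR measured by a cell-based luminescence readout across a dose range, run as a counterscreen for daf-12 agonists; HEK293 cells with Gal4-LXR fusion and GAL4-driven luciferase reporter; potency for activation of Gal4-LXR reporter so compounds are agonists.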
In assay [8] the target is T3, Beta-2 adrenergic receptor (Homo sapiens, UniProt P07550). The experiment in a line: beta2AR agonists driving receptor internalization, dose response, cell-based, FAP fluorogen, flow cytometry, cherry pick 1 (AID 588763). The assay is classed as functional.
Assay [9] has as its target T3, Beta-2 adrenergic receptor. Kind of assay: Dose response for HTS for Beta-2AR agonists via FAP method from Powderset1. The assay is classed as functional.
The nature of assay [10]: cytotoxicity in HEK293 cells, dose response, cytotoxicity control, cell-based, cherry-picked samples (AID 1053185). Type of assay: functional.
The nature of assay [11]: cytotoxicity in HepG2 cells, dose response, cytotoxicity control, cell-based, cherry-picked samples (AID 1053183). Type of assay: functional.
Assay [12] can be described thus: HEK293 Cytotoxicity Assay Measured in Cell-Based System Using Plate Reader - 7071-01_Inhibitor_Dose_CherryPick_Activity_Set2. The assay is classed as functional.
In the next assay the test system is HEK293. The experiment in a line: HEK293T cell cytotoxicity, dose response, cytotoxicity control, ATP luminescence, cherry-pick samples (AID 687005).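 Note: cells exposed to compound for 48 hours.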 Type of assay: functional, cell-based. The following applies: Homo sapiens.

Several values for one entry are separate records, joined by “and”; a condition that tells them apart may be missing. Equal entries are not always repeated. Activity calls are given as the source filed them.

T3 sequence (P07550 whole entry): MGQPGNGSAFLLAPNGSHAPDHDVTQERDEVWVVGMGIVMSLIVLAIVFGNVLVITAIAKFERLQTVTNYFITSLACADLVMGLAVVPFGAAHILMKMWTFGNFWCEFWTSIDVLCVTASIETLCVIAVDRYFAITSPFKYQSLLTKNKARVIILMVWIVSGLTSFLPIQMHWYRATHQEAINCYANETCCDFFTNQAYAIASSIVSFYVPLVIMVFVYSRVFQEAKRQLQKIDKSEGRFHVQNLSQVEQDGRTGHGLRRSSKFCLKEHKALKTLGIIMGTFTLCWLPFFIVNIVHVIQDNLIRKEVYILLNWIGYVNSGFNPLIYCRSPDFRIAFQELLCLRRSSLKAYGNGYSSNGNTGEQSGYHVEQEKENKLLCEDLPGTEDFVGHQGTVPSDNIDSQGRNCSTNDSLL
T1 sequence (P08183 whole entry): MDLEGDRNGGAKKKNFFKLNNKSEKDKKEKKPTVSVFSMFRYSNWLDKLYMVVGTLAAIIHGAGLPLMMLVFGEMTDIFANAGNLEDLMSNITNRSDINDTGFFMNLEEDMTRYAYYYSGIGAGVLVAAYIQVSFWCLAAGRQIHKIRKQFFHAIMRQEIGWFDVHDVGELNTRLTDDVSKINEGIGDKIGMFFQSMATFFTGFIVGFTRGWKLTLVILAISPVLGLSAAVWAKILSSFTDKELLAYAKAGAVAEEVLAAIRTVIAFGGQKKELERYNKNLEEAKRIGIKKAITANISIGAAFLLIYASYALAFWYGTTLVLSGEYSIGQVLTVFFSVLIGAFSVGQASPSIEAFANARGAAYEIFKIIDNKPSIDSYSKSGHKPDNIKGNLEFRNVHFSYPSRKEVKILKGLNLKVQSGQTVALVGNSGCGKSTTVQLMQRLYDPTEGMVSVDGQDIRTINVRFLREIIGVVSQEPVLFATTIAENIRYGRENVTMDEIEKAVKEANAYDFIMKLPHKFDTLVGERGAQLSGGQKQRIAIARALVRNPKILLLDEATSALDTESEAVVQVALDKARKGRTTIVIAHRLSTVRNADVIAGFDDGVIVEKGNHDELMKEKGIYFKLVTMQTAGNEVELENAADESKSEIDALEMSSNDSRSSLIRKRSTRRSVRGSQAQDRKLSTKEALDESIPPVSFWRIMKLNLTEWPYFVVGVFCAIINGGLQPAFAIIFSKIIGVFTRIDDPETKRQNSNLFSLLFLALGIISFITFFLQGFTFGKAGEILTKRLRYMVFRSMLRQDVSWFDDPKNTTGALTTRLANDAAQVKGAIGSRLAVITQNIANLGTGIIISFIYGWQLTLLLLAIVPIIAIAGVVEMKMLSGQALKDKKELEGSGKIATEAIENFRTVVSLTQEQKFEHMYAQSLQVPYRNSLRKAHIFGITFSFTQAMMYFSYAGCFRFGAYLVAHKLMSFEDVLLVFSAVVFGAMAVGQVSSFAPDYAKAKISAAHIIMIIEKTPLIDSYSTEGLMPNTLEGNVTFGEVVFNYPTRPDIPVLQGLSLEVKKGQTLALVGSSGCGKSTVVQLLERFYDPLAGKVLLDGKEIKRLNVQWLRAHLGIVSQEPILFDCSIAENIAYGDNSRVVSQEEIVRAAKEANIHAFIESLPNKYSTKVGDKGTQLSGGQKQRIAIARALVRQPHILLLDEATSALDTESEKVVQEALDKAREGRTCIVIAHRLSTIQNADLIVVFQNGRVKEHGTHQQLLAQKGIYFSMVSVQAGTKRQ
Sequence of NS3 (A3EZJ3 whole entry): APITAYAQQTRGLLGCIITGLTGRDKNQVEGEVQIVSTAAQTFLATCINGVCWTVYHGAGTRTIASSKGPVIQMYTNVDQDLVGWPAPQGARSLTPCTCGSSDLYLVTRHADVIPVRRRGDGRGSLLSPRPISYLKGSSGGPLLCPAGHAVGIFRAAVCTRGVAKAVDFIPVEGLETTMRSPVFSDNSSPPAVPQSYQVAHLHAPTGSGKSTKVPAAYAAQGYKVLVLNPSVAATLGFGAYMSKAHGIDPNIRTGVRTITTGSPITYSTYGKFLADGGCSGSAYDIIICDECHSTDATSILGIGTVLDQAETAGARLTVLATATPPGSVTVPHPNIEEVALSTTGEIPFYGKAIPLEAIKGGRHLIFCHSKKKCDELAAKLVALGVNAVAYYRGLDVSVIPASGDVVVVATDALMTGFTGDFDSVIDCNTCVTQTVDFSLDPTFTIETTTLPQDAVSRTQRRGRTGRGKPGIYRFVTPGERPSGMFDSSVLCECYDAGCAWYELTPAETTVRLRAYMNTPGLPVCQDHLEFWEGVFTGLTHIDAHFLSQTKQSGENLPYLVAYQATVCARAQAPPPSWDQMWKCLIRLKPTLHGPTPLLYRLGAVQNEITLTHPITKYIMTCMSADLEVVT
Sequence of Oxysterols receptor LXR-beta (P55055 whole entry, the tested form may be a part): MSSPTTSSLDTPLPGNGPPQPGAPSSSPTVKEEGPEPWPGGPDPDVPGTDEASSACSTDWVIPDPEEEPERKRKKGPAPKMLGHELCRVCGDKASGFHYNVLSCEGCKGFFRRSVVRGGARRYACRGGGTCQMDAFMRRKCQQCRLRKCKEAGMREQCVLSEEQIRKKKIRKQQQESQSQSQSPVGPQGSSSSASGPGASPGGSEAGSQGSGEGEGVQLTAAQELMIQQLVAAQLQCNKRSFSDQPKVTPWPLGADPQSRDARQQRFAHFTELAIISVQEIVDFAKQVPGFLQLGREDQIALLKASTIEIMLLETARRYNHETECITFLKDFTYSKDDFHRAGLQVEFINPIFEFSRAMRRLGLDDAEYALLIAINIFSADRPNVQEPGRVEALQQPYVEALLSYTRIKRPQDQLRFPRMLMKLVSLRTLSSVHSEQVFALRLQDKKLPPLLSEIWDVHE
Sequence of Melanocortin receptor 4 (P32245 whole entry): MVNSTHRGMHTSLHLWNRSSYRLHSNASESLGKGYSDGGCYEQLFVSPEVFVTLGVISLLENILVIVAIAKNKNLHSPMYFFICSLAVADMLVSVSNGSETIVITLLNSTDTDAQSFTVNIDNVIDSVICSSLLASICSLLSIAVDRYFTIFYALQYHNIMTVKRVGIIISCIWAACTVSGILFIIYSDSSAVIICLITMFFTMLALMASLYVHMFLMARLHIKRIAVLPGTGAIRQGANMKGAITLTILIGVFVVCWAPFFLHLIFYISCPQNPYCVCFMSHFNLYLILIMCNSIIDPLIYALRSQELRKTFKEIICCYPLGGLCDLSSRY
Sequence of ADP-ribosylation factor GTPase-activating protein 1 (Q62848 whole entry): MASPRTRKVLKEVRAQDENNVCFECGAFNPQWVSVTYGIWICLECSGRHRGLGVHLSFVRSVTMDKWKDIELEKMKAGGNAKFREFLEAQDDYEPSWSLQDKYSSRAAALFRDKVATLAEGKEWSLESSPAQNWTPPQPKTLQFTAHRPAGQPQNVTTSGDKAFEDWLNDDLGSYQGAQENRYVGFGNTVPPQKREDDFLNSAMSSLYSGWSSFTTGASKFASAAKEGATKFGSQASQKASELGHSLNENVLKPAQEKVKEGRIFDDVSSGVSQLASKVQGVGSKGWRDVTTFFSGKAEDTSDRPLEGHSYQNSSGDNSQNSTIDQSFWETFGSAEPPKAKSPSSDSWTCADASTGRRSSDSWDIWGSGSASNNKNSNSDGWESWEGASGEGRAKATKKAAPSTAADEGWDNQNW

The term IC50 denotes the concentration that gives 50% inhibition. For `Cc1ccc(C(=O)O)cc1-n1c(C)ccc1C`, at NS3, the IC50 was 7.6 µM (inactive).
One may read the AC50 as the concentration giving half of the maximal activity seen. Consider `COc1ccc(S(=O)(=O)N2CCN(CC(=O)NC3CC3)CC2)cc1`, for which the AC50 in the assay on A549 was 35.1 µM (active).
Take `C=CCOc1ccc(/C=C/C(=O)Nc2ccc(C(=O)NC)cc2)cc1`: the IC50 in assay [1] is 52.2 µM (inactive).
As to `COc1ccc(C2CCN(c3ccnc4ccccc34)C2)cc1OC` (configuration not stated), in assay [2], the half-inhibitory concentration (IC50) is 2 µM (active).
Broadly, the CC50 is the concentration at which the toxic effect on the cells reaches its halfway point. For the molecule `Cc1cc(N2CCN(C(=O)c3ccco3)CC2)n2nc(-c3cccc(Cl)c3)cc2n1`, the EC50 in assay [3] was 2.24 µM (active); in assay [5], 5.05 µM (inactive); on Melanocortin receptor 4, > 89.2 µM (inactive). Moreover, the CC50 in assay [4] was 34.7 µM (active).
For `O=C(C1CCOCC1)N1CC[C@@H]2[C@H]1c1cc(Br)ccc1N[C@@H]2CO`, the AC50 in the assay with HeLa was > 52 µM (inactive); in assay [6], 4.59 µM (active).
With `Nc1nn(-c2cccc(F)n2)cc1-c1ccccc1`, in assay [7], the EC50 was > 67.5 µM (inactive).
As to `CC(=O)Nc1ccc(S(=O)(=O)N2CCCCC2c2cccnc2)cc1` (configuration not stated), the EC50 in [8] was 262 nM (active) and 107 nM (active); in assay [9] it was 0.0233 µM (active).
With `C[C@H]1CNC(=O)[C@@H](Cc2ccc(C(F)(F)F)cc2)CCn2nncc2COC1`, the AC50 was > 52 µM (inactive) in assay [10] and 35.5 µM (active) in assay [11].
`C[C@@H]1CN([C@@H](C)CO)C(=O)Cc2cc(NC(=O)c3ccncc3)ccc2O[C@H]1CN(C)Cc1ccncc1`: the AC50 (in assay [12]; with HEK293) was > 52 µM (inactive) throughout.
